For the first test, the target named is human NK3 receptor (Homo sapiens (Human), UniProt P29371). As to the kind of experiment: [3H]SR142801 competition binding assay. The settings on record: membranes from HEK293 cells transiently expressing recombinant human NK3 receptor; [3H]SR142801 radioligand; read-out: Ki (uM) hNK3. On the procedure:
[^3H]SR142801 Competition Binding Assay
hNK3 receptor binding experiment were performed using [^3H]SR142801 (Catalog No. TRK1035, specific activity: 74.0 Ci/mmol, Amersham, GE Healthcare UK limited, Buckinghamshire, UK) and membrane isolated from HEK293 cells transiently expressing recombinant human NK3 receptor. After thawing, the membrane homogenates were centrifuged at 48,000×g for 10 min at 4° C., the pellets were resuspended in the 50 mM Tris-HCl, 4 mM MnCl2, 1 μM phosphoramidon, 0.1% BSA binding buffer at pH 7.4 to a final assay concentration of 5 μg protein/well. For inhibition experiments, membranes were incubated with [^3H]SR142801 at a concentration equal to KD value of radioligand and 10 concentrations of the inhibitory compound (0.0003-10 μM) (in a total reaction volume of 500 μl) for 75 min at room temperature (RT). At the end of the incubation, membranes were filtered onto unitfilter (96-well white microplate with bonded GF/C filter preincubated 1 h in 0.3% PEI+0.3% BSA, Packard BioScience, Meriden, Conn.) with a Filtermate 196 harvester (Packard BioScience) and washed 4 times with ice-cold 50 mM Tris-HCl, pH 7.4 buffer. Nonspecific binding was measured in the presence of 10 μM SB222200 for both radioligands. The radioactivity on the filter was counted (5 min) on a Packard Top-count microplate scintillation counter with quenching correction after addition of 45 μl of microscint 40 (Can berra Packard S. A., Zurich, Switzerland) and shaking for 1 h. Inhibition curves were fitted according to the Hill equation: y=100/(1+(x/IC50)^nH), where nH=slope factor using Excel-fit 4 software (Microsoft). IC50 values were derived from the inhibition curve and the affinity constant (Ki) values were calculated using the Cheng-Prussoff equation Ki=IC50/(1+[L]/KD) where [L] is the concentration of radioligand and KD is its dissociation constant at the receptor, derived from the saturation isotherm. All experiments were performed in duplicate and the mean±standard error (SEM) of the individual Ki values was calculated.
Chain of human NK3 receptor (P29371 whole entry): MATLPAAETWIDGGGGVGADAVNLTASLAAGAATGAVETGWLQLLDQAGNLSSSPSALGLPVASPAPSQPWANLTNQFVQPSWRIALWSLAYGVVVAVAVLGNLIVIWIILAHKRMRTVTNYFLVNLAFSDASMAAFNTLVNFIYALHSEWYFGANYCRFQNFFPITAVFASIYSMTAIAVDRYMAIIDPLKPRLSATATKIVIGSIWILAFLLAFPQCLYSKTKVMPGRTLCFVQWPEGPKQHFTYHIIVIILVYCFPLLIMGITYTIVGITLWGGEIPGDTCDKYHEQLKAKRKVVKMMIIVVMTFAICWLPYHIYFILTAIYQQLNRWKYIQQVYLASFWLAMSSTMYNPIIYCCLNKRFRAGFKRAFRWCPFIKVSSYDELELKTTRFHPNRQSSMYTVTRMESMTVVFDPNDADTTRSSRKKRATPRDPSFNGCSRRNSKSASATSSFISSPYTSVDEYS
As for `CC(C)CN1CCC(C(=O)N2C[C@H](c3ccc(Cl)cc3)[C@@](C)(COc3ccc(Cl)cn3)C2)CC1` (racemic) [Example 12, [(3RS,4RS)-4-(4-Chloro-phenyl)-3-(5-chloro-pyridin-2-yloxymethyl)-3-methyl-pyrrolidin-1-yl]-(1-isobutyl-piperidin-4-yl)-methanone], the Ki turned out to be 0.0225 µM.
With `COc1ccc(C(=O)N2C[C@H](c3ccc(Cl)cc3)[C@@](C)(COc3ccc(Cl)cn3)C2)cn1` (racemic) [Example 9, [(3RS,4RS)-4-(4-Chloro-phenyl)-3-(5-chloro-pyridin-2-yloxymethyl)-3-methyl-pyrrolidin-1-yl]-(6-methoxy-pyridin-3-yl)-methanone], the Ki was determined as 0.0563 µM.
The same measure, in the same setting: with `Cc1noc(-c2ccc(C(=O)N3C[C@H](c4ccc(Cl)cc4)[C@@](C)(COc4ccc(Cl)cn4)C3)cc2)n1` (racemic) [Example 7, [(3RS,4RS)-4-(4-Chloro-phenyl)-3-(5-chloro-pyridin-2-yloxymethyl)-3-methyl-pyrrolidin-1-yl]-[4-(3-methyl-[1,2,4]oxadiazol-5-yl)-phenyl]-methanone] the figure was 0.0043 µM.
The same measure, in the same setting: then `C[C@]1(COc2ccc(Cl)cn2)CN(C(=O)C2CCOCC2)C[C@@H]1c1ccc(Cl)cc1` (racemic) [Example 10, [(3RS,4RS)-4-(4-Chloro-phenyl)-3-(5-chloro-pyridin-2-yloxymethyl)-3-methyl-pyrrolidin-1-yl]-(tetrahydro-pyran-4-yl)-methanone], with 0.0874 µM; and `C[C@]1(COc2ccc(Cl)cn2)CN(C(=O)c2ccc(C#N)cc2)C[C@@H]1c1ccc(Cl)cc1` (racemic) [Example 8, 4-[(3RS,4RS)-4-(4-Chloro-phenyl)-3-(5-chloro-pyridin-2-yloxymethyl)-3-methyl-pyrrolidine-1-carbonyl]-benzonitrile], with 0.0451 µM.
Regarding `C[C@]1(COc2ccc(Cl)cn2)CN(C(=O)C2CCN(C3CCCCC3)CC2)C[C@@H]1c1ccc(Cl)cc1` (racemic) [Example 14, [(3RS,4RS)-4-(4-Chloro-phenyl)-3-(5-chloro-pyridin-2-yloxymethyl)-3-methyl-pyrrolidin-1-yl]-(1-cyclohexyl-piperidin-4-yl)-methanone], the Ki was 0.015 µM.
As to `C[C@]1(COc2ccc(Cl)cn2)CN(C(=O)c2ccnc(Cl)c2)C[C@@H]1c1ccc(Cl)cc1` (racemic) [Example 5], the Ki was 0.0618 µM.

The test is the same for the next values; noted with them: membranes from HEK293 cells transiently expressing recombinant human NK3 receptor; [3H]SR142801 radioligand; second half of table, head prints nM; read-out: Ki (nM) hNK3.
For the molecule `C[C@]1(COc2ccc(Cl)cn2)CN(C(=O)c2ccc(N3CCCCC3=O)cc2)C[C@@H]1c1ccc(Cl)cc1` (racemic) [Example 27, 1-{4-[(3RS,4RS)-4-(4-Chloro-phenyl)-3-(5-chloro-pyridin-2-yloxymethyl)-3-methyl-pyrrolidine-1-carbonyl]-phenyl}-piperidin-2-one], the Ki was determined as 0.0931 µM.
On the same count and under the same terms, then `C[C@]1(COc2ccc(Cl)cn2)CN(C(=O)C2CCN(c3ccc(F)cn3)CC2)C[C@@H]1c1ccc(Cl)cc1` (racemic) [Example 19, [(3RS,4RS)-4-(4-Chloro-phenyl)-3-(5-chloro-pyridin-2-yloxymethyl)-3-methyl-pyrrolidin-1-yl]-(5′-fluoro-3,4,5,6-tetrahydro-2H-[1,2′]bipyridinyl-4-yl)-methanone], with 0.0112 µM; and `COc1ccc(N2CCC(C(=O)N3C[C@H](c4ccc(Cl)cc4)[C@@](C)(COc4ccc(Cl)cn4)C3)CC2)nn1` [Example 26, [(3R,4R)-4-(4-Chloro-phenyl)-3-(5-chloro-pyridin-2-yloxymethyl)-3-methyl-pyrrolidin-1-yl]-[1-(6-methoxy-pyridazin-3-yl)-piperidin-4-yl]-methanone], with 0.0114 µM; and `C[C@]1(COc2ccc(Cl)cn2)CN(C(=O)C2CCN(c3ccc(C#N)cc3)CC2)C[C@@H]1c1ccc(Cl)cc1` (racemic) [Example 17, 4-{4-[(3RS,4RS)-4-(4-Chloro-phenyl)-3-(5-chloro-pyridin-2-yloxymethyl)-3-methyl-pyrrolidine-1-carbonyl]-piperidin-1-yl}-benzonitrile], with 0.0023 µM.
On the same count and under the same terms, with `C[C@]1(COc2ccc(Cl)cn2)CN(C(=O)C2CCN(c3ccc(C#N)nc3)CC2)C[C@@H]1c1ccc(Cl)cc1` (racemic) [Example 25, 4-[(3RS,4RS)-4-(4-Chloro-phenyl)-3-(5-chloro-pyridin-2-yloxymethyl)-3-methyl-pyrrolidine-1-carbonyl]-3,4,5,6-tetrahydro-2H-[1,3′]bipyridinyl-6′-carbonitrile] the figure was 0.0044 µM; with `Cc1nc(-c2ccc(C(=O)N3C[C@H](c4ccc(Cl)cc4)[C@@](C)(COc4ccc(Cl)cn4)C3)cc2)no1` (racemic) [Example 24, [(3RS,4RS)-4-(4-Chloro-phenyl)-3-(5-chloro-pyridin-2-yloxymethyl)-3-methyl-pyrrolidin-1-yl]-[4-(5-methyl-[1,2,4]oxadiazol-3-yl)-phenyl]-methanone], 0.0261 µM.
Regarding `CC(=O)c1ccc(N2CCC(C(=O)N3C[C@H](c4ccc(Cl)cc4)[C@@](C)(COc4ccc(Cl)cn4)C3)CC2)nc1` (racemic) [Example 18, 1-{4-[(3RS,4RS)-4-(4-Chloro-phenyl)-3-(5-chloro-pyridin-2-yloxymethyl)-3-methyl-pyrrolidine-1-carbonyl]-3,4,5,6-tetrahydro-2H-[1,2′]bipyridinyl-5′-yl}-ethanone], the Ki was 0.0059 µM.

System in the next test: not given
Assay: not given
The settings on record: phase II trial; altered behaviour, delusion, hallucinations, extreme emotions, excited motor activity, incoherent speech; cited from earlier work.
With `CC(=O)N(C)C1(c2ccccc2)CCN(CCC[C@]2(c3ccc(Cl)c(Cl)c3)CCCN(C(=O)c3ccccc3)C2)CC1` [SR 142,801, Osanetant], the “activity on positive symptoms of schizophrenia” value is “active on positive symptoms of schizophrenia”.

Still in this test, the particulars now being: phase II trial; depression, anhedonia, social isolation, memory and attention deficits; cited from earlier work.
Regarding `CC(=O)N(C)C1(c2ccccc2)CCN(CCC[C@]2(c3ccc(Cl)c(Cl)c3)CCCN(C(=O)c3ccccc3)C2)CC1` [SR 142,801, Osanetant], the “activity on negative symptoms of schizophrenia” value is “inactive in the treatment of negative symptoms”.

For orientation: Ki means the equilibrium dissociation constant of an inhibitor or competing ligand from its target.

The values are drawn from patent publication US8507535B2 (Hoffmann-La Roche Inc., priority 2010, dated 2013).
